One compound from paper PMC7464698, “Phenolic Composition and Skin-related Properties of the Aerial Parts Extract of Different Hemerocallis Cultivars” (Antioxidants, 2020) can be followed below.

The structures appear in SMILES notation. Values after ≈ are worked out from the molar mass of the structure shown.

For experiment [1], the target named is T1, Porcine pancreatic elastase (Sus scrofa, UniProt P00772).
T1 construct: gene CELA1; commercial native enzyme from pancreas (Sigma-Aldrich); mature enzyme
T1 sequence (P00772 27-266): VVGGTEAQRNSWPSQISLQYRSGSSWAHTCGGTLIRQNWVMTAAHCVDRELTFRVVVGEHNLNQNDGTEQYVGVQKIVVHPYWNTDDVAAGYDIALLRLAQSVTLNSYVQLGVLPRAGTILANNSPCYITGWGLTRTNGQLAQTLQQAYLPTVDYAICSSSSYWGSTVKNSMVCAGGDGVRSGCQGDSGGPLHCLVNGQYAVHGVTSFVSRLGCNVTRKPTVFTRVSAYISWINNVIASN
The experiment is described as follows: N-Succinyl-Ala-Ala-Ala-p-nitroanilide hydrolysis, absorbance […] nm. To be noted: read-out: IC50 [μg/mL] / Elastase Inhibition (converted). The experiment is classed as biochemical.

For experiment [2], the target named is T2, Collagenase from Clostridium histolyticum.
T2 construct: gene colG; commercial native enzyme preparation (Sigma-Aldrich); mixture of ColG and ColH not resolved
The experiment is described as follows: FALGPA hydrolysis, absorbance […] nm. The experiment is classed as biochemical, Hathewaya histolytica. Particulars: FALGPA 1 mM; Tricine 0.05 M pH 7.5, 0.4 M NaCl, 0.01 M CaCl2; 29 °C; 10 min preincubation; positive control.

Consider `O=C(O[C@@H]1Cc2c(O)cc(O)cc2O[C@@H]1c1cc(O)c(O)c(O)c1)c1cc(O)c(O)c(O)c1` [EGCG], for which, in experiment [1], the IC50 was 136 µM. The “IC50 [μg/mL] / Collagenase Inhibition” value in experiment [2] is given as 34.9 ± 0.4 µg/mL (≈ 76.1 µM).
